SMILES strings stand for the structures. Like-named read-outs stand apart in the source and are kept apart here.

Among the data in patent publication US10653688B2, “6-(6-membered heteroaryl and aryl)isoquinolin-3-yl carboxamides and preparation and use thereof” (Samumed, LLC, priority 2017, dated 2020) are EC50 and inhibition values, retold here.

In assay [1] the target is recombinant GSK3β kinase (Homo sapiens (Human), UniProt P49841). Put plainly: GSK3β kinase assay (Ser/Thr 09 peptide Z-lyte, FRET).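 Further: FRET read-out as coumarin over fluorescein emission ratio, compounds incubated one hour at room temperature, IC50 from dose-response curve fit.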 Type of assay: biochemical.
The test system of assay [2] is Tau phosphorylation at Ser396 (pSer396) in SH-SY5Y cells. Description: Tau phosphorylation at Ser396 (pSer396) cell assay, ELISA/western blot. Type of assay: cell-based, human. Conditions: Homo sapiens; SH-SY5Y cells, overnight (16-18 h); read-out: pSer396 Tau EC50.
Assay [3] deals with SW480 colon carcinoma cells. Put plainly: Cell viability assay (CellTiter-Glo). Type of assay: cell-based, human. Conditions: Homo sapiens; for EC50: 96 h, four days, CellTiter-Glo; for inhibition at 10 µM: read-out: percent inhibition at 10 μM (given for EC50 >10 μM), 10 μM. On the technique in general: ATP-based viability assays read luminescence as a measure of living cells.

Assay [4] deals with LL29 cells (primary human fibroblasts derived from IPF patients), α-smooth muscle actin. Description: Inhibition of fibrotic process: TGF-β1-treated primary human fibroblasts, αSMA staining.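 On all read-outs here: controls were TGF-β1-stimulated wells with DMSO vehicle as the positive reference and cells given DMSO alone as the negative reference.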 Format: cell-based. Conditions: Homo sapiens, Fibroblast; for EC50: 96 h, TGF-β1 20 ng/mL, 4 days, % cells positive for αSMA; for inhibition at 10 µM: read-out: percent inhibition at 10 μM (given for EC50 >10 μM), TGF-β1, αSMA, 10 μM.

Assay [5] deals with secreted cytokines TNFα, IL-6 and KC-GRO in BV-2 cells (mouse microglial cells). Description: Secreted cytokines in lipopolysaccharide-stimulated mouse glial cell line. Type of assay: cell-based. The settings on record: LPS 250 ng/mL 5 hours, table does not say which cytokine. The gist of the method:
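BV-2 cells seeded at 35,000/well were pretreated overnight with compound (10 μM to 4.6 nM final), then stimulated 5 h with 250 ng/mL E. coli O111:B4 LPS. Supernatant TNFα, IL-6 and KC-GRO were quantified by electrochemiluminescence against standard curves (pg/mL) to fit EC50. Cytotoxicity was checked by CellTiter-Glo ATP read-out.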

Assay [6] deals with recombinant DYRK1A kinase (Homo sapiens (Human), UniProt Q13627). Put plainly: DYRK1A kinase assay (Ser/Thr 18 peptide Z-lyte, FRET).
Assay [7] deals with pT212Tau in Dyrk1a- and MAPT-overexpressing HEK293T cells. Put plainly: Tau phosphorylation at Threonine 212 (pT212Tau) sandwich ELISA in double transfected cells. The settings on record: Homo sapiens, HEK-293T, read-out: Thr212 EC50 (μM). On the technique in general: In an ELISA, binding on a coated surface is turned into a signal by an enzyme label.
Method: HEK293T cells (transfectable human embryonic kidney cells) were cultured in DMEM medium supplemented with 10% FBS and 1% penicillin/streptomycin.
HEK293T cells were transiently transfected to overexpress Dyrk1a and microtubule-associated protein Tau (MAPT) genes. Specifically, Dyrk1a and MAPT expression vectors were obtained from OriGene (10 μg of each, catalog numbers SC314641 and RC216166, respectively). […] HEK293T cells were seeded at 1.0×10^7 cells in 10 mL per T-75 flask. […] One T-75 flask was designated as a no-vector negative control for pT212Tau signal.
After 4-6 hours of incubation in transfection reagents, transiently double transfected HEK293T cells were dissociated by treatment with trypsin EDTA and seeded at 1.0×10^5 cells in 100 μL per well in 96-well plates. No-vector negative controls were seeded in separate 96-well plates to avoid the risk of the negative control cells picking up the overexpression during incubation.
96-well flat-bottom plates were coated with 100 μL per well anti-HT7 capture antibody (ThermoFisher, MN1000) diluted 1:300 in 1×PBS at 4° C. overnight, with shaking at 500 rpm.
Cells were then lysed with 100 μL 1×RIPA buffer supplemented with phosphatase and protease inhibitors (each diluted to a final 1×). […] V-bottom plates were centrifuged at 4000 rpm, 4° C., for 15 minutes, and 100 μL of lysate supernatant from each well was directly tested for pT212Tau signal by sandwich ELISA.
[8] abbreviates: GSK3β kinase, head says EC50, method says IC50, ATP 46 μM.
[9] abbreviates: DYRK1A kinase, head says EC50, method says IC50, ATP 30 μM.

Sequence of recombinant GSK3β kinase (P49841 whole entry): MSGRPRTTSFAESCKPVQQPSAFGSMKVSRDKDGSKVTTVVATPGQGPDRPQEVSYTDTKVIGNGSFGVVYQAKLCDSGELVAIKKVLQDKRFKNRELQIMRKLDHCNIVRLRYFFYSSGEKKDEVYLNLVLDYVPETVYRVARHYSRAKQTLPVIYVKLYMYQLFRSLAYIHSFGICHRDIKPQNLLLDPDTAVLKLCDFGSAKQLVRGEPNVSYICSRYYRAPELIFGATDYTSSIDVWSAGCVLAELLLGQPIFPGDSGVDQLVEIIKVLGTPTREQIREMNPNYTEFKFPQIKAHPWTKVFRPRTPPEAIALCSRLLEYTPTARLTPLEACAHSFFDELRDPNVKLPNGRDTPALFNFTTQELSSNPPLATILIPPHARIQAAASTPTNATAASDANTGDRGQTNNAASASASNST

As usually defined, the EC50 is the midpoint of the concentration-response curve. The inhibition is the percentage by which the read-out fell short of the control. Turning to `CN1CCN(CC(=O)Nc2cc3cc(-c4ccc(F)nc4)ccc3cn2)CC1` [Compound 21, N-(6-(6-Fluoropyridin-3-yl)isoquinolin-3-yl)-2-(4-methylpiperazin-1-yl) acetamide], the EC50 was 3.21 µM in assay [1] (setting [8]); > 10 µM in assay [2]; > 10 µM in assay [3]; 3.41 µM in assay [4]; 0.671 µM in assay [5]; 0.042 µM in assay [6] (setting [9]). In assay [7], the concentration giving a half-maximal response (EC50) came to 1.5 µM. Besides, the inhibition at 10 µM in assay [3] amounted to 50%.

For the molecule `O=C(CCN1CCOCC1)Nc1cc2cc(-c3cncc(F)c3)ccc2cn1` [Compound 23, N-(6-(5-Fluoropyridin-3-yl)isoquinolin-3-yl)-3-morpholinopropanamide], the EC50 in assay [1] was 0.602 µM; in assay [2], 8.5 µM; in assay [3] it was > 10 µM; in assay [4], 1.63 µM; in assay [5] it was 0.628 µM; in assay [6], 0.017 µM. In addition, the EC50 in assay [7] was > 10 µM. Moreover, the inhibition at 10 µM in assay [3] was 24.8%.

As to `COc1cncc(-c2ccc3cnc(NC(=O)C4CCN(C)CC4)cc3c2)c1` [Compound 33, N-(6-(5-Methoxypyridin-3-yl)isoquinolin-3-yl)-1-methylpiperidine-4-carboxamide], the concentration for a half-maximal effect (EC50) in assay [1] (setting [8]) turned out to be 0.957 µM; in assay [2], 1.45 µM; in assay [3], 1.82 µM; in assay [4] it was 0.481 µM; in assay [5], 0.062 µM; in assay [6] (setting [9]) it was 0.004 µM. Moreover, the EC50 in assay [7] came to 0.033 µM.

As for `CN1CCC(C(=O)Nc2cc3cc(-c4cncc(N5CCCC5)c4)ccc3cn2)CC1` [Compound 50, 1-Methyl-N-(6-(5-(pyrrolidin-1-yl)pyridin-3-yl)isoquinolin-3-yl)piperidine-4-carboxamide], the EC50 in assay [1] (setting [8]) is 0.725 µM; in assay [2], > 10 µM; in assay [3], 2.2 µM; in assay [4], > 10 µM; in assay [5], 0.109 µM; in assay [6] (setting [9]), 0.025 µM. Also, the EC50 in assay [7] turned out to be 0.113 µM. In assay [4], the inhibition at 10 µM was determined as 31.1%.

On to `O=C(Nc1cc2cc(-c3cncc(CN4CCCC4)c3)ccc2cn1)C1CC1` [Compound 51, N-(6-(5-(Pyrrolidin-1-ylmethyl)pyridin-3-yl)isoquinolin-3-yl) cyclopropanecarboxamide], for which the EC50 worked out at 0.175 µM in assay [1] (setting [8]); 1.9 µM in assay [2]; 4.06 µM in assay [3]; 4.23 µM in assay [4]; 0.171 µM in assay [5]; 0.007 µM in assay [6] (setting [9]). In assay [7], the concentration for a half-maximal effect (EC50) was 0.047 µM.

`O=C(Nc1cc2cc(-c3cncc(CN4CCC(O)CC4)c3)ccc2cn1)C1CC1` [Compound 53, N-(6-(5-((4-Hydroxypiperidin-1-yl)methyl)pyridin-3-yl)isoquinolin-3-yl) cyclopropanecarboxamide]: the EC50 in assay [1] amounted to 0.175 µM; in assay [2], 0.705 µM; in assay [3] it was 2.35 µM; in assay [4] it was 3.07 µM; in assay [5] it was 0.055 µM; in assay [6] it was 0.002 µM. In addition, in assay [7], the 50% effective concentration (EC50) came to 0.003 µM.

For `CN1CCN(Cc2cncc(-c3ccc4cnc(NC(=O)C5CC5)cc4c3)c2)CC1` [Compound 56, N-(6-(5-((4-Methylpiperazin-1-yl)methyl)pyridin-3-yl)isoquinolin-3-yl) cyclopropanecarboxamide], the EC50 in assay [1] (setting [8]) is 0.609 µM; in assay [2] it was 4.9 µM; in assay [3], 3.3 µM; in assay [4] it was 5.13 µM; in assay [5], 0.177 µM; in assay [6] (setting [9]) it was 0.005 µM. In addition, the EC50 in assay [7] was determined as 0.045 µM.

`O=C(Nc1cc2cc(-c3cncc(CN4CCOCC4)c3)ccc2cn1)C1CC1` [Compound 57, N-(6-(5-(Morpholinomethyl)pyridin-3-yl)isoquinolin-3-yl) cyclopropanecarboxamide]: the EC50 came out at 0.18 µM in assay [1] (setting [8]); 2 µM in assay [2]; 3.18 µM in assay [3]; 2.16 µM in assay [4]; 0.152 µM in assay [5]; 0.004 µM in assay [6] (setting [9]). Also, in assay [7], the 50% effective concentration (EC50) came to 0.05 µM.

Turning to `[2H]c1nc([2H])c(-c2ccc3cnc(NC(=O)CN4CCCC4)cc3c2)c([2H])c1[2H]` [Compound 60, N-(6-(pyridin-3-yl-d4)isoquinolin-3-yl)-2-(pyrrolidin-1-yl)acetamide], the EC50 in assay [1] is 0.404 µM; in assay [2], 1.9 µM; in assay [3] it was 3.94 µM; in assay [4] it was 2.6 µM; in assay [5], 3.23 µM; in assay [6], 0.01 µM. In addition, the EC50 in assay [7] was determined as 0.126 µM.

With `[2H]c1nc([2H])c(-c2ccc3cnc(NC(=O)CN4CCN(C)CC4)cc3c2)c([2H])c1[2H]` [Compound 61, 2-(4-Methylpiperazin-1-yl)-N-(6-(pyridin-3-yl-d4)isoquinolin-3-yl)acetamide], the EC50 in assay [1] was 1.03 µM; in assay [2] it was 9.8 µM; in assay [3], > 10 µM; in assay [4], > 10 µM; in assay [5], 0.086 µM; in assay [6], 0.011 µM. In addition, in assay [7], the half-maximal effective concentration (EC50) turned out to be 0.121 µM. The inhibition at 10 µM in assay [3] turned out to be 21.6%; in assay [4], 4.6%.

For `[2H]c1nc([2H])c(-c2ccc3cnc(NC(=O)CN4CCOCC4)cc3c2)c([2H])c1[2H]` [Compound 62, 2-Morpholino-N-(6-(pyridin-3-yl-d4)isoquinolin-3-yl)acetamide], the 50% effective concentration (EC50) in assay [1] is 0.455 µM; in assay [2] it was 4.8 µM; in assay [3] it was > 10 µM; in assay [4], > 10 µM; in assay [5] it was 0.307 µM; in assay [6], 0.009 µM. In assay [7], the EC50 turned out to be 0.086 µM. In addition, the inhibition at 10 µM in assay [3] came to 16.6%; in assay [4] it was 13.2%.

Consider `O=C(CN1CCOCC1)Nc1cc2cc(-c3ccnnc3)ccc2cn1` [Compound 67, 2-morpholino-N-(6-(pyridazin-4-yl)isoquinolin-3-yl)acetamide], for which the half-maximal effective concentration (EC50) in assay [1] was 0.068 µM; in assay [2] it was 1.1 µM; in assay [3], > 10 µM; in assay [4] it was 1.03 µM; in assay [5] it was 0.406 µM; in assay [6] it was 0.029 µM. Further, the EC50 in assay [7] is 0.206 µM. For the same molecule, the inhibition at 10 µM in assay [3] worked out at 19.2%.

In the case of `O=C(Nc1cc2cc(-c3cnccn3)ccc2cn1)[C@H]1C[C@H](N2CCOCC2)C1` [Compound 69, trans-3-Morpholino-N-(6-(pyrazin-2-yl)isoquinolin-3-yl)cyclobutane-1-carboxamide], the 50% effective concentration (EC50) was 0.283 µM in assay [1]; 2.9 µM in assay [2]; > 10 µM in assay [3]; 6.73 µM in assay [4]; 0.75 µM in assay [5]; 0.02 µM in assay [6]. For the same molecule, the EC50 in assay [7] is 0.227 µM. The inhibition at 10 µM in assay [3] turned out to be 19.5%.

With `O=C(Nc1cc2cc(-c3cnccn3)ccc2cn1)[C@H]1CC[C@H](N2CCOCC2)CC1` [Compound 71, trans-4-Morpholino-N-(6-(pyrazin-2-yl)isoquinolin-3-yl)cyclohexane-1-carboxamide], the EC50 is 1.02 µM in assay [1]; 3.3 µM in assay [2]; > 10 µM in assay [3]; > 10 µM in assay [4]; 0.629 µM in assay [5]; 0.011 µM in assay [6]. Further, the EC50 in assay [7] turned out to be 0.019 µM. Besides, the results for the inhibition at 10 µM in assay [3] and in assay [4] were 14.6% and 43.4%, respectively.
